We go through five compounds from patent US20230038929A1, “Fused Tricyclic Heterocyclic Compounds and Uses Thereof” (Verge Analytics, Inc., priority 2019, published 2023).

One test concerns the target T1, PI3Kα (p110α/p85α) (Homo sapiens, UniProt P42336).
T1 construct: Full-length N-terminal; FLAG (N); host or cells: SF9 cells (baculovirus)
It is filed as biochemical. As to conditions: 0.5 nM enzyme, ATP 90 μM, 1 μM PIP2, 3 h room temperature; read-out: PI3Kα IC50.

For the next test, the system named is IPSC-C9 motor neurons. In words: iPSC MN Survival assay (IPSC-C9). As to conditions: maximal reduction in hazard ratio vs control at various concentrations; <1.0 increased survival, >1.0 decreased survival. It is filed as cell-based, human.
The target in another test is T2, PI3Kβ (p110β/p85α) (Homo sapiens, UniProt P42338).
T2 construct: Full-length N-terminal GST-; GST (N); host or cells: SF9 cells (baculovirus)
It is filed as biochemical. The following applies: 1 nM enzyme, ATP 60 μM, 1 μM PIP2, 3 h room temperature; read-out: PI3Kβ IC50.

Test [1] deals with T3, Full length human recombinant PIKFYVE (Homo sapiens, UniProt Q9Y2I7, L932S/Q1183K/Q995L/S1033A/S696N/T998S).
T3 construct: Full length human recombinant PIKFYVE; purchased Carna Biosciences (Kobe, Japan); host or cells: baculovirus expression system (insect cells)
Put plainly: Inhibition of PIKfyve (microfluidic electrophoresis kinase assay). The following applies: 2 nM enzyme, 1 μM PI3P, 3 h at room temperature, 12 concentrations; read-out: PIKfyve IC50. It is filed as biochemical. A digest of the protocol:
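GST-tagged full-length human PIKfyve (2 nM, baculovirus) with 1 μM fluorescent PI3P/PS substrate and […] in HEPES pH 7.5, Mg2+/Mn2+, 1% DMSO, 3 h at room temperature; 12 compound concentrations. PI(3,5)P product/substrate peaks resolved by microfluidic electrophoresis; IC50 from four-parameter fit of %-inhibition.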

In test [2] the test system is ALS patient (SOD1 A4V) iPSC derived motor neurons. In words: iPSC MN Survival assay (IPSC-SOD1). It is filed as cell-based, human. As to conditions: nutrient deprived media (HBSS), six days, maximal reduction in hazard ratio, <1.0 increased survival. As for the experimental part:
Biological Example 4: iPSC MN Survival assay
Fibroblasts from ALS patients with known SOD1 A4V mutation were reprogrammed into inducible pluripotent stem cells (iPSC) and then differentiated to motor neurons. In culture, ALS patient derived motor neurons show increased death rate compared to motor neurons derived from healthy individuals in a stressed condition (nutrient deprived media, Hank's buffered salt solution—HBSS). […] Cell rescue was measured following more than two different concentrations of each compound for six days with greater than four replicates in a 96-well format to ensure studies with power >0.8. Cells are transduced with a GFP reporter and imaged once a day to track survival. A broad-spectrum caspase inhibitor served as the positive control.
Microscopy image-based readout: Cells are transduced with a GFP reporter and imaged once a day with a blue laser to track survival. Imagers used include the Biotek Cytation 5 and Thermo Fisher EVOS Auto FL 2. All Images undergo uniform processing consisting of rolling hat background subtraction and contrast adjustment. Microscopy images are analyzed using software proprietary to Verge. Cells are identified by their shape and each cell is tracked across images and time points for each well. Survival is visually assessed from the Kaplan-Meier curves. Survival of the cells is modeled and tested using a mixed effects Cox regression where each well is modeled as the random effect, and the group (control/treatment) as the fixed effect. […]. Data are presented in Table 7 as the maximal reduction in hazard ratio scores measured at various concentrations.

The target in the next test is T4, PI3Kδ (p110δ/p85α) (Homo sapiens, UniProt O00329).
T4 construct: Full-length N-terminal GST-; GST (N); host or cells: SF9 cells (baculovirus)
It is filed as biochemical. The following applies: 0.25 nM enzyme, ATP 90 μM, 1 μM PIP2, 3 h room temperature; read-out: PI3Kδ IC50.

T3 sequence (Q9Y2I7 whole entry S696N/L932S/Q995L/T998S/S1033A/Q1183K): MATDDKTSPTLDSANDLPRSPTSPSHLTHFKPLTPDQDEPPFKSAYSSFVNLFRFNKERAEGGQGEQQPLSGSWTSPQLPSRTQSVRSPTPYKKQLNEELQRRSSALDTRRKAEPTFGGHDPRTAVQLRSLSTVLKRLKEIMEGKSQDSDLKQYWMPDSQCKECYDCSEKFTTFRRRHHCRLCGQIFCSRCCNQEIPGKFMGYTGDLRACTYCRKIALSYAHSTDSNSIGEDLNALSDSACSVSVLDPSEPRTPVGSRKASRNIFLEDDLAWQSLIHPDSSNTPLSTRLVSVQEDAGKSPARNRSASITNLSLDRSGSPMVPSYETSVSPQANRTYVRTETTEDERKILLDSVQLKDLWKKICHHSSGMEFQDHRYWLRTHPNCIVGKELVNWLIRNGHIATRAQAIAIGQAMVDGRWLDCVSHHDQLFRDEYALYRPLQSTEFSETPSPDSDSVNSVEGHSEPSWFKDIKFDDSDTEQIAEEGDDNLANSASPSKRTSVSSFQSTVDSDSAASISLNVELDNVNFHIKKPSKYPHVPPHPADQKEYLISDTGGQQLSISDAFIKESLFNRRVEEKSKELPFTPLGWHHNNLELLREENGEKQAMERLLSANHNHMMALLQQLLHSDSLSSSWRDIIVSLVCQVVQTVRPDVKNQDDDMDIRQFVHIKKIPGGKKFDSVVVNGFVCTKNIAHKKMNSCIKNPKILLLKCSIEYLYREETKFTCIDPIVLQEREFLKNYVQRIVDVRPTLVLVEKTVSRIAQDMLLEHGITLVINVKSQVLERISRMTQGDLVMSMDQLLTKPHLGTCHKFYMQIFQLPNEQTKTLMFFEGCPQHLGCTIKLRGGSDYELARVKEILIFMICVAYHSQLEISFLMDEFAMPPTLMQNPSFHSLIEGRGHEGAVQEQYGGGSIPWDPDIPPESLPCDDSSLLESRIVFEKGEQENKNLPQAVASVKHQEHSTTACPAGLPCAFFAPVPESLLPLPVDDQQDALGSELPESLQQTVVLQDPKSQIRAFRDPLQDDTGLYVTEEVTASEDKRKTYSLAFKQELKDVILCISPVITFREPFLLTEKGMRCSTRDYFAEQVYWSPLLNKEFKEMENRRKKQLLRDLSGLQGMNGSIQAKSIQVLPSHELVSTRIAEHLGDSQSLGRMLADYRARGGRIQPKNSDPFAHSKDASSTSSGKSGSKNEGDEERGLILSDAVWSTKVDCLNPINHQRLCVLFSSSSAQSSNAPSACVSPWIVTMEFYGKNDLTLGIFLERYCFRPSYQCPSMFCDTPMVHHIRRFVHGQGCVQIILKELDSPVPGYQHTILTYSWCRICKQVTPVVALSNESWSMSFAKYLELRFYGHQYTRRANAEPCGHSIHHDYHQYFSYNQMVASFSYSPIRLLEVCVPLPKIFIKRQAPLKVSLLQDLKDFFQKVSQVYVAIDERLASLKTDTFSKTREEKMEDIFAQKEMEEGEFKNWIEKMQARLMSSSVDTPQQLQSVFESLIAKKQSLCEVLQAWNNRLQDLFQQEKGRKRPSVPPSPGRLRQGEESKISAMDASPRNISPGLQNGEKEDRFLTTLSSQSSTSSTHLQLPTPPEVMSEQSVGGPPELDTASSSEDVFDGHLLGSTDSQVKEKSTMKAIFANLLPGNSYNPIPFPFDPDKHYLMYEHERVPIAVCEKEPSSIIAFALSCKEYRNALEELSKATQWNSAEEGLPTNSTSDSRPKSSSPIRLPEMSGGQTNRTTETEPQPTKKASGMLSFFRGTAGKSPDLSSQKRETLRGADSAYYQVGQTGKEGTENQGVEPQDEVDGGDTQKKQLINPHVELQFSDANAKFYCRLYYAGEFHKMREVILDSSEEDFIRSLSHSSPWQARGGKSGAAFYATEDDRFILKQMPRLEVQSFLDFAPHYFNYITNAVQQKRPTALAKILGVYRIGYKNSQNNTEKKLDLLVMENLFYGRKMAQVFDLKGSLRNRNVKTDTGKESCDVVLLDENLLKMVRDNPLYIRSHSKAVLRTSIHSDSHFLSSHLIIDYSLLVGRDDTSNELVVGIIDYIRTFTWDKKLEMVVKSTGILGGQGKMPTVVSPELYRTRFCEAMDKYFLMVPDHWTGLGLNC
T2 sequence (P42338 whole entry): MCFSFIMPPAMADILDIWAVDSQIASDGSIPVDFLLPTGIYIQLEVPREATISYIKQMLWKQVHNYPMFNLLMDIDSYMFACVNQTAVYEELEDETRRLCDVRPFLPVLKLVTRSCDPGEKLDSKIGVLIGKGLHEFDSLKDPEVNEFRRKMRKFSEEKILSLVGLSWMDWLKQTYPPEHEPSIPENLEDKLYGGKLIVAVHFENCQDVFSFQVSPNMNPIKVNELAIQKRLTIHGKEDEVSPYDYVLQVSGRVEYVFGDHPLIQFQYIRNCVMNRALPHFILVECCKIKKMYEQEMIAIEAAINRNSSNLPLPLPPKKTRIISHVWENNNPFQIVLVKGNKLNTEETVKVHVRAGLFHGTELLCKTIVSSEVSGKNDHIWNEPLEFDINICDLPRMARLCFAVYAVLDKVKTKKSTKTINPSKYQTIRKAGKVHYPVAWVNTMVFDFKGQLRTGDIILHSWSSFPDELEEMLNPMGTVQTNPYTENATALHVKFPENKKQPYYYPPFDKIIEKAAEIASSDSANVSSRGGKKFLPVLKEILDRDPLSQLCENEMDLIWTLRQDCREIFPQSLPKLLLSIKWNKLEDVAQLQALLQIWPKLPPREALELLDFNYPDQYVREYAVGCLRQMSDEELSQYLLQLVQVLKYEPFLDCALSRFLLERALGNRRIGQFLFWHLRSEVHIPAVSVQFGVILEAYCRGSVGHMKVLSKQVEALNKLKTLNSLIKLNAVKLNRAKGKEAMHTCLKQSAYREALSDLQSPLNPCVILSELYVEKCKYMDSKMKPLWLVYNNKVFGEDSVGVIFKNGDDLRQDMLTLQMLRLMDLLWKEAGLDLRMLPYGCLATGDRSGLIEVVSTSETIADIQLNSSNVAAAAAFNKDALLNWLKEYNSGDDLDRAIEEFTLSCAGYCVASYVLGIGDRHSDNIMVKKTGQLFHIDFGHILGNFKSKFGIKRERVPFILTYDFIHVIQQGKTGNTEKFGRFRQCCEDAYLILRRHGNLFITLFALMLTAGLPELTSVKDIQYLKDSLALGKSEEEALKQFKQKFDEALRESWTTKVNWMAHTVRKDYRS
T2 sequence (P27986 whole entry, further chain): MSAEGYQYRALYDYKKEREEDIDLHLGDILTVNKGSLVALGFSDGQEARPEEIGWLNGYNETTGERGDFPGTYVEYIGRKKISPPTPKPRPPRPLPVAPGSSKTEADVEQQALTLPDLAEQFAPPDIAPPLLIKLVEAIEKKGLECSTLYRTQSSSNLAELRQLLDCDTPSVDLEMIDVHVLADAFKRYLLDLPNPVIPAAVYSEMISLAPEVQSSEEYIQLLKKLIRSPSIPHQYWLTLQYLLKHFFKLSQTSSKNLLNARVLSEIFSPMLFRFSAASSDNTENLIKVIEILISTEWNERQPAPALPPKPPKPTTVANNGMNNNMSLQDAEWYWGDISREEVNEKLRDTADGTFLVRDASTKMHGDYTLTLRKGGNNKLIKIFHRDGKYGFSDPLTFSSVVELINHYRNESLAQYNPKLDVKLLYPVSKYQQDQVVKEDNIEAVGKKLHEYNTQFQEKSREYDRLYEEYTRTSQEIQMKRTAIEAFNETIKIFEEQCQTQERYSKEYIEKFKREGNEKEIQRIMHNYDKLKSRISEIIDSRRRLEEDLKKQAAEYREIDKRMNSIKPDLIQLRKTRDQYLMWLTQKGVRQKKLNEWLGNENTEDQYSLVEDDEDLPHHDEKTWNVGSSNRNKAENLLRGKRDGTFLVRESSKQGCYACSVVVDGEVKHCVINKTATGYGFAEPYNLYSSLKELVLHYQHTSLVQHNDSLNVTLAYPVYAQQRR
T4 sequence (O00329 whole entry): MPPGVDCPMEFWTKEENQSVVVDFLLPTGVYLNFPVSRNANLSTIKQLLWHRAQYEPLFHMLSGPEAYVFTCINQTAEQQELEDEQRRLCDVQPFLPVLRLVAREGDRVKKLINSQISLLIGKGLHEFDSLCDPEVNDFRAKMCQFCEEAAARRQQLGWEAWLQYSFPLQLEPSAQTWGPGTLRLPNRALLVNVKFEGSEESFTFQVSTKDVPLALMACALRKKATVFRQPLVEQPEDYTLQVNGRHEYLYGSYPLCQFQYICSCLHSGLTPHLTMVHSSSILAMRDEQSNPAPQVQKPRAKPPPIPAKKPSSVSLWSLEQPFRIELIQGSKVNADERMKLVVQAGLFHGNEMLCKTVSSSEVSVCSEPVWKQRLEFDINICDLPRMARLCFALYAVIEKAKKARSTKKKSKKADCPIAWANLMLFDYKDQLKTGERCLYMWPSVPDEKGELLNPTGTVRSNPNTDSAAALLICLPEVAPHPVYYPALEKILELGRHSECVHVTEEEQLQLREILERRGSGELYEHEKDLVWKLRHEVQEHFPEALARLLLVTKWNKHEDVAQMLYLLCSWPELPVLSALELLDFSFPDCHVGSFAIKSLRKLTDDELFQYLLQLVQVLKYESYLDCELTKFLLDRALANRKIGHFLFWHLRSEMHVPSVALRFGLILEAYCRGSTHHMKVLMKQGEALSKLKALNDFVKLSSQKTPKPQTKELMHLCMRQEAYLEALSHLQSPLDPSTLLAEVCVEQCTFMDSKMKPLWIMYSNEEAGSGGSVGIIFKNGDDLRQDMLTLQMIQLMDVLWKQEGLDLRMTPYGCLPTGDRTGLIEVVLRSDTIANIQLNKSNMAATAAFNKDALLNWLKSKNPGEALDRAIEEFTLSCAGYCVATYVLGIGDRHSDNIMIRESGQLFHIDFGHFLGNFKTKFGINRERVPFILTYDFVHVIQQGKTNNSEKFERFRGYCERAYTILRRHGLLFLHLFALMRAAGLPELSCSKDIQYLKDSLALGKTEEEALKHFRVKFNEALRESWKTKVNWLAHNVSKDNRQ
T4 sequence (P27986 whole entry, further chain): as the sequence (P27986 whole entry, further chain) above

Usually IC50 stands for the concentration needed to halve the response being measured. On to `c1ccc(-c2cc(Nc3nc(N4CCOCC4)c4oc5ncccc5c4n3)[nH]n2)cc1` [Example 9, 4-Morpholino-N-(3-phenyl-1H-pyrazol-5-yl)pyrido[3′,2′:4,5]furo[3,2-d]pyrimidin-2-amine], for which the IC50 on PI3Kα (p110α/p85α) was 144 nM; at PI3Kβ (p110β/p85α), greater than 10000 nM; in test [1] it was 23 nM; on PI3Kδ (p110δ/p85α), 75 nM. Moreover, the “IPSC-C9 (Hazard Ratio)” value in the test on IPSC-C9 motor neurons came to 0.65. Further, the “IPSC-SOD1 (Hazard Ratio)” value in test [2] stood at 0.81.
For the compound `c1cnc2oc3c(N4CCOCC4)nc(Nc4cc(-c5ccncc5)n[nH]4)nc3c2c1` [Example 10, 4-Morpholino-N-(3-(pyridin-4-yl)-1H-pyrazol-5-yl)pyrido[3′,2′:4,5]furo[3,2-d]pyrimidin-2-amine], the IC50 at PI3Kα (p110α/p85α) was 117 nM; at PI3Kβ (p110β/p85α) it was 1310 nM; in test [1], 185 nM; on PI3Kδ (p110δ/p85α) it was 37 nM. In addition, in the test with IPSC-C9 motor neurons, the “IPSC-C9 (Hazard Ratio)” value worked out at 0.96. Also, the “IPSC-SOD1 (Hazard Ratio)” value in test [2] is recorded as 1.04.
Take `Cc1cc(N(C)c2nc(N3CCOCC3)c3oc4ncccc4c3n2)nn1C` [Example 11, N-(1,5-Dimethyl-1H-pyrazol-3-yl)-N-methyl-4-morpholinopyrido[3′,2′:4,5]furo[3,2-d]pyrimidin-2-amine]: the half-maximal inhibitory concentration (IC50) was 244 nM at PI3Kα (p110α/p85α), 7030 nM at PI3Kβ (p110β/p85α), greater than 10000 nM in test [1] and 278 nM at PI3Kδ (p110δ/p85α). In addition, in the test on IPSC-C9 motor neurons, the “IPSC-C9 (Hazard Ratio)” value worked out at 0.99. The “IPSC-SOD1 (Hazard Ratio)” value in test [2] came to 1.1.
Take `c1ccc(Nc2nc(N3CCOCC3)c3oc4ncccc4c3n2)cc1` [Example 37, 4-morpholino-N-phenylpyrido[3′,2′:4,5]furo[3,2-d]pyrimidin-2-amine]: the IC50 was determined as 67 nM on PI3Kα (p110α/p85α), 1040 nM on PI3Kβ (p110β/p85α), 439 nM in test [1] and 41 nM on PI3Kδ (p110δ/p85α). Besides, in the test on IPSC-C9 motor neurons, the “IPSC-C9 (Hazard Ratio)” value is 0.99. In addition, the “IPSC-SOD1 (Hazard Ratio)” value in test [2] amounted to 1.03.
As to `Cc1cccc(-c2cc(Nc3nc(N4CCOCC4)c4oc5ncccc5c4n3)[nH]n2)c1` [Example 49, 4-morpholino-N-(3-(m-tolyl)-1H-pyrazol-5-yl)pyrido[3′,2′:4,5]furo[3,2-d]pyrimidin-2-amine], the “IPSC-C9 (Hazard Ratio)” value in the test with IPSC-C9 motor neurons is on record as 1.2. In test [1], the IC50 was found to be 38 nM. Also, the “IPSC-SOD1 (Hazard Ratio)” value in test [2] was 1.03.
